Measurements reported in publication PMC7377239, “Cardiovascular Effects of Polychlorinated Biphenyls and Their Major Metabolites” (Environmental Health Perspectives, 2020).
Structures can show the parent of a compound that is named as a salt.

System: iPSC-CMs, iPSC-ECs and HUVECs phenotypes
Assay: ToxPi 2.0 integration of POD values and physicochemical descriptors
Design: species or system human
Conditions: ToxPi-scaled (0-1) score; for huvec.cyto.24hr / huvec.mito.24hr / huvec.mitoint.24hr / huvec.nma.24hr / huvec.tc.24hr / huvec.mtl.18hr / huvec.tlps.18hr / huvec.tta.18hr / huvec.ttl.18hr: HUVECs; for huvec.mtl.18hr / huvec.tlps.18hr / huvec.tta.18hr / huvec.ttl.18hr / endo.mtl.18hr / endo.tlps.18hr / endo.tta.18hr / endo.ttl.18hr: tube formation; for cm.amp.avg.90min / cm.amp.cv.90min / cm.bpm.90min / cm.cam.90min / cm.decay.rise.90min / cm.mii.90min / cm.mito.90min / cm.spacing.cv.90min / cm.tc.90min / cm.amp.avg.24hrs / cm.amp.cv.24hrs / cm.bpm.24hrs / cm.cam.24hrs / cm.decay.rise.24hrs / cm.mii.24hrs / cm.mito.24hrs / cm.spacing.cv.24hrs / cm.tc.24hrs: iPSC cardiomyocytes; for endo.cyto.24hr / endo.mito.24hr / endo.mitoint.24hr / endo.nma.24hr / endo.tc.24hr / endo.mtl.18hr / endo.tlps.18hr / endo.tta.18hr / endo.ttl.18hr: iPSC endothelial cells
Description: Phenotypic responses were quantitatively assessed using concentration–response modeling as detailed elsewhere ([Sirenko et al. 2017]). Briefly, phenotypic readouts were normalized to vehicle controls and fit to a four-parameter logistic model in R studio software (version 3.1.1; R Development Core Team). Following EPA guidance on dose–response modeling, a cutoff of one standard deviation across means of vehicle control (i.e., 0.5% vol/vol DMSO in cell culture media) wells was applied to determine the point-of-departure (POD) values ([U.S. EPA 2012]). In the absence of a concentration–response, the highest tested concentration (i.e., 100μM ) was assigned as “no observable adverse effect level.” The concentration–response assessment R script, as well as templates for vehicle and concentration–response data, are available as a supplement to Sirenko et al. ([2017]). The ability of physicochemical properties to predict differences in PODs were evaluated by multiregression and mixed-effects modeling using R.
POD values were then integrated using ToxPi 2.0 ([Marvel et al. 2018]) software. In ToxPi, each slice is representative of cell type– and time-point–specific phenotypes. The area of each slice is proportional to the relative value (e.g., bioactivity or physicochemical descriptor value) of the chemical within the data set. ToxPi scores were used to rank PCBs and their metabolites according to their overall bioactivity and to determine variability in total observable biological responses and chemical characteristics for each major metabolite class and chlorination status (mono-, hexa-chlorinated). Additional visualizations such as dumbbell and principal components analysis plots were generated in R Studio (version 1.1.456; R version 3.5.1; R Development Core Team) using the ggplot2 package.

Row | Structure (SMILES) | huvec.cyto.24hr | huvec.mito.24hr | huvec.mitoint.24hr | huvec.nma.24hr | huvec.tc.24hr | huvec.mtl.18hr | huvec.tlps.18hr | huvec.tta.18hr | huvec.ttl.18hr | cm.amp.avg.90min | cm.amp.cv.90min | cm.bpm.90min | cm.cam.90min | cm.decay.rise.90min | cm.mii.90min | cm.mito.90min | cm.spacing.cv.90min | cm.tc.90min | cm.amp.avg.24hrs | cm.amp.cv.24hrs | also measured
1 | Oc1cc(Cl)c(-c2cc(Cl)ccc2Cl)cc1Cl [4-OH-PCB 52] | 0.4769 | 0.5351 | 0.7457 | 0 | 0.4769 | 0.5555 | 0.604 | 0.1308 | 0.07185 | 0.2901 | 0.2696 | 1 | 1 | 0.2017 | 0.2919 | 1 | 0.1401 | 1 | 0.1949 | 0.09883 | cm.bpm.24hrs: 0.4544; cm.cam.24hrs: 0.15; cm.decay.rise.24hrs: 0.2583; cm.mii.24hrs: 0.1136; cm.mito.24hrs: 0.2161; cm.spacing.cv.24hrs: 0.3488; cm.tc.24hrs: 0.2027; endo.cyto.24hr: 0.3535; endo.mito.24hr: 0.3535; endo.mitoint.24hr: 0.1136; endo.nma.24hr: 0.0802; endo.tc.24hr: 0.3161; endo.mtl.18hr: 0.2459; endo.tlps.18hr: 0.3982; endo.tta.18hr: 0.1729; endo.ttl.18hr: 0.1737
2 | O=S(=O)(O)Oc1ccc(-c2ccc(Cl)cc2)cc1 [4'-PCB 3 sulfate] | 0 | 0 | 0 | 0 | 0 | 0.4903 | 0 | 0.272 | 0 | 0.6628 | 0.2569 | 0.1909 | 0 | 0.4625 | 0 | 0 | 0.1039 | 0 | 0 | 0 | cm.bpm.24hrs: 0; cm.cam.24hrs: 0; cm.decay.rise.24hrs: 0; cm.mii.24hrs: 0.1652; cm.mito.24hrs: 0; cm.spacing.cv.24hrs: 0; cm.tc.24hrs: 0; endo.cyto.24hr: 0; endo.mito.24hr: 0; endo.mitoint.24hr: 0; endo.nma.24hr: 0; endo.tc.24hr: 0; endo.mtl.18hr: 0.3281; endo.tlps.18hr: 0.3444; endo.tta.18hr: 0.1625; endo.ttl.18hr: 0.2037
3 | O=S(=O)(O)Oc1ccc(-c2cccc(Cl)c2)cc1Cl [4-PCB 11 sulfate] | 0.07428 | 0.09457 | 0.4402 | 0.4481 | 0.07428 | 0.4352 | 0.2468 | 0 | 0 | 0.5438 | 0.207 | 0.3056 | 0 | 0.417 | 0 | 0 | 0.1011 | 0 | 0.2154 | 0.3772 | cm.bpm.24hrs: 0.2853; cm.cam.24hrs: 0.3798; cm.decay.rise.24hrs: 0.3284; cm.mii.24hrs: 0.1874; cm.mito.24hrs: 0.571; cm.spacing.cv.24hrs: 0.2596; cm.tc.24hrs: 0.6332; endo.cyto.24hr: 0; endo.mito.24hr: 0; endo.mitoint.24hr: 0; endo.nma.24hr: 0; endo.tc.24hr: 0; endo.mtl.18hr: 0.1436; endo.tlps.18hr: 0.3311; endo.tta.18hr: 0.1419; endo.ttl.18hr: 0.1256
